Data published in PMC5688156, “The natural product carolacton inhibits folate-dependent C1 metabolism by targeting FolD/MTHFD” (Nature Communications, 2017).
Read-outs that look alike come from different tables or passages of the source.

Molecular target: T1, hsMTHFD2 (Homo sapiens, UniProt P13995)
T1 construct: His-tag (vector pHis-TEV) (cleaved yes); made in house; host or cells: E. coli BL21 (DE3)
T1 sequence (P13995 36-350): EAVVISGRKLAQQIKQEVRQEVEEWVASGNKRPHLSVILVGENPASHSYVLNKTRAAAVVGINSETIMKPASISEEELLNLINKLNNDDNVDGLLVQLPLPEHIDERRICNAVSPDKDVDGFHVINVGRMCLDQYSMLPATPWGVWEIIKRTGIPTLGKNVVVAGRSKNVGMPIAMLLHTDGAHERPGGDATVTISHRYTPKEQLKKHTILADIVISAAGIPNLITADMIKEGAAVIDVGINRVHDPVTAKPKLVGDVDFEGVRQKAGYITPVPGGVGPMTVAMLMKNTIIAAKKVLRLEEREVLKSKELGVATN
Test: hsMTHFD2 dehydrogenase (DH) enzyme assay
Assay type: biochemical
Method: (6R,S)-5,10-Methylene-5,6,7,8-tetrahydrofolic acid ((6R,S)-5,10-CH2-THF) calcium salt and (6R,S)-5,10-Methenyl-5,6,7,8-tetrahydrofolic acid ((6R,S)-5,10-CH=THF) chloride were purchased from Schircks Laboratories (Bauma, Switzerland) and used as substrates for FolD dehydrogenase and cyclohydrolase enzyme assays, respectively. Only the R-isomer, which accounts for 50% of (6R,S)-5,10-CH2-THF and (6R,S)-5,10-CH=THF, respectively, is used by the enzyme. (6R,S)-5,10-CH2-THF was dissolved in N2-spargeled basic buffer (50 mM Tris-HCl (pH 8.0), 100 mM β-mercaptoethanol) as described by Varshney et al.[25]. (6R,S)-5,10-CH=THF was dissolved in DMSO as a 100 mM stock solution.
Because FolD is a bifunctional enzyme, dehydrogenase and cyclohydrolase activities were determined for FolD enzyme kinetics, respectively. The dehydrogenase activity of FolD was assayed for its substrate 5,10-CH2-THF and cofactor NADP^+ (in the case of MTHFD2, NAD^+ was used as the cofactor) based on monitoring the formation of 5,10-CH=THF, while the cyclohydrolase activity of FolD was determined for its substrate 5,10-CH=THF by monitoring the hydrolysis of […]. The enzyme kinetics for the dehydrogenase activity of all FolDs except hsMTHFD1_DC were determined at 30 °C in 50 mM Tris-HCl (pH 7.5), 30 mM β-mercaptoethanol. The hsMTHFD1_DC dehydrogenase activity was measured in 25 mM MOPS (pH 7.3), 30 mM β-mercaptoethanol at 30 °C. To measure the enzyme kinetic constants for 5,10-CH2-THF, for example in the case of ecFolD, the NADP concentration was fixed at 1 mM and the concentration of 5,10-CH2-THF varied from 5 to 1500 μM (R-isomer). Similarly, to measure the kinetic constants of ecFolD for NADP^+, the concentration of 5,10-CH2-THF (R-isomer) was fixed at 1 mM and the concentration of NADP^+ varied from 10 to 1500 μM. For different FolDs, the varied concentration range of substrates could be different. […] To monitor the formation of 5,10-CH=THF, the absorbance of the reaction mixture was monitored at 350 nm in micro UV cuvettes (BRAND, Essex, Connecticut, USA). The concentration of 5,10-CH=THF produced in the reaction was determined using an extinction co-efficient of 0.0249 μM^−1 cm^−1. […] The consumption of 5,10-CH=THF was measured by recording the absorbance of the reactions at 355 nm using the TECAN Infinite 200 PRO equipped with a monochromator. […] The inhibition constants (K i) of carolacton on FolD were determined by measuring the apparent K m when adding certain amounts of carolacton to the enzyme reactions. […] To compare the inhibition effects of carolacton between the different FolDs, the half maximal inhibitory concentration (IC50) of carolacton on the same amount of enzyme was determined for FolDs involved in this study. […]

In the case of CO[C@H](CC(=O)O)[C@@H](C)C(=O)[C@H](C)/C=C(\C)[C@H]1OC(=O)[C@H](O)[C@H](O)/C=C/[C@H](C)CCC[C@@H]1C [carolacton], the IC50 (10 nM enzyme, read-out: IC50, carolacton inhibition on DH activity) is reported as 6.5 nM, the IC80 (10 nM enzyme, read-out: IC80, carolacton inhibition on DH activity) is reported as 31.7 nM and the Ki (cofactor is NAD+ in the case of hsMTHFD2, read-out: Ki (NADP+), carolacton inhibition on DH activity) is reported as 16.7 nM. It also gave a Ki (vs 5,10-CH2-THF, read-out: Ki (5,10-CH2-THF), carolacton inhibition on DH activity) of 6.42 nM.
